Test results as given in US20230013227A1, “ARYL-ANILINE AND HETEROARYL-ANILINE COMPOUNDS FOR TREATMENT OF BIRTHMARKS” (NFlection Therapeutics, Inc., priority 2018, published 2023).
Where two headings read alike, the source gives them in different places. Each block holds one compound with its values, some of them ahead of it.

Key:
p-ERK = assay: Human birthmark explant protocol (Example 1): p-ERK in nevus sebaceous explants; type: cell-based; conditions: topical gel
Excerpt: Study Objectives: The primary objective was to assess the efficacy of a topically-formulated compound described herein in suppressing p-ERK, a downstream biomarker of RAS/MAPK signaling in epidermal nevus and nevus sebaceous. The secondary objectives was to assess permeability (where the compound was applied topically) in birthmark explants treated with a compound described herein.
Sample Collection and Eligibility: Discarded human birthmark (epidermal nevus and nevus sebaceous) samples were obtained from the Stanford Surgery Clinic, using an approved human subjects protocol (Stanford IRB #18325). Specimens were identified under the direction of the Principal Investigator and placed in cell proliferation media (DMEM/F12 containing penicillin/streptomycin (0.1%); fungizone (40 μg/mL); B27 (without vitamin A).
Samples were primary, untreated birthmarks of at least 6 mm in size; samples were excised by a shave, punch biopsy or elliptical excision. Specimens were identified under the direction of the Principal Investigator. Specimens were chopped into 2 mm fragments and placed in 24-well plates containing cell proliferation media (DMEM/F12 containing penicillin/streptomycin (0.1%); fungizone (40 μg/mL); B27 (without vitamin A) and submerged in media with drug. For topical gel application, samples were placed in 96 well plates with epidermal surface exposed to air.
For the data provided in FIGS. 3 and 4, a gel topical gel formulation of Trametinib, Compound No. 2.003, Compound No. 4.029, or the gel topical formulation of vehicle only were topically applied to the surface of a birthmark explant at 4 hours for analysis. The gel formulation was 1% hydroxypropyl cellulose in DMSO/PEG 400 1:1 (v/v) and the tested compound was 1% by weight in the gel formulation. Samples were harvested at 4 hours for analysis. Harvested tissue was bisected and with half snap frozen and half fixed in 10% formalin and paraffin embedded for further analysis.
For the data provided in FIG. 5, a gelled topical gel formulation of Compound 2.003 or the gel topical formulation of vehicle only were topically applied to the surface of a birthmark explant at 4 hours for analysis. The gel formulation was 1.5% hydroxypropyl cellulose in the base formulation and the tested compound was 0.01% by weight of the base formulation. The Compositions of the base formulation are listed below. Samples were harvested at 4 hours for analysis. Harvested tissue was bisected and with half snap frozen and half fixed in 10% formalin and paraffin embedded for further analysis.
For the data provided in FIG. 6, three gelled topical gel formulations of Compound 2.003 at different concentrations or the gel topical formulation of vehicle only were topically applied to the surface of a birthmark explant at 4 hours for analysis. […]

HCT116 cells = assay: Cell-Based Assay-2 (Example 5): Cell Titer-Glo viability, HCT116 (Kras) GI50; conditions: Homo sapiens, HCT-116; Table 8, compounds of formula (II); 72 hours; read-out: Assay 3: HCT116 (Kras) GI50
Experimental: (§1) Alternatively, the following procedure can be used to measure cell-based activity. Test compounds were dissolved in DMSO in 10 mM stock. Cell Titer-Glo® 2.0 Luminescent cell viability assay reagent was purchased from Promega (Madison, Wis.). A375 and HCT116 cell lines were purchased from American Type Culture Collection (Manassas, Va.). For A375 cells, cell culture media was DMEM+10% FBS. For HCT116 cells, cell culture media was McCoy's 5A+10% FBS. All media were supplemented with 100 μg/mL of penicillin, and 100 μg/mL of streptomycin. Cultures were maintained at 37° C. in a humidified atmosphere of 5% CO2 and 95% air.
(§2) Test compounds were diluted in DMSO solution with 10-dose and 3-fold dilutions in a source plate starting at 10 mM. […] Luminescence was recorded by Envision 2104 Multilabel Reader (PerkinElmer, Santa Clara, Calif.). The number of viable cells in culture was determined based on quantitation of the ATP present in each culture well. […] Luminescence was recorded by Envision 2104 Multilabel Reader (PerkinElmer, Santa Clara, Calif.). The number of viable cells in culture was determined based on quantitation of the ATP present in each culture well. […] All parameters in the equation were calculated by GraphPad Prism 4 program. […] Accordingly, GI50 is the value of 10^X, where X was calculated by the Curve Fitting Equation when Y=50 using Excel.

A375 cells = assay: Cell-Based Assay-2 (Example 5): Cell Titer-Glo viability, A375 (BRAF) GI50; conditions: Homo sapiens, A-375; Table 8, compounds of formula (II); 72 hours
Experimental: as §1, §2

MEK1 = molecular target: T1, MEK1 (Homo sapiens, UniProt Q02750); assay: MEK Inhibition Assay-1 (Example 2): 33P-ATP, P81 filter-binding kinase assay; conditions: read-out: Assay 1: biochemical MEK IC50
T1 construct: N-terminal His-tagged recombinant human full length protein; purchased Invitrogen PV3303; host or cells: insect cells
Experimental: The following procedure can be used to measure biochemical activity. MEK1 inhibitory activity of compounds were tested using the following procedure. […] Nat Biotechnoi 2011, 29(11), 1039-45.
• Reaction buffer: 20 mM Hepes (pH 7.5), 10 mM MgCl2, 1 mM EGTA, 0.02% Brij35, 0.02 mg/mL BSA, 0.1 mM Na3VO4, 2 mM DTT, 1% DMSO • Enzyme: MEK1, Invitrogen cat #PV3303 • N-terminal His-tagged recombinant human full length protein, expressed in insect cells. Activated in vitro by RAF1. MW=49.2 kDa, GenBank Accession No. NP_002746. • Substrate: 5 μM ERK2 (K52R), • Kinase-dead mutant, (GenBank Accession No. NM_0011949), aa2-358 with N-terminal His6 tag, MW=43.63 kDa, expressed in E. coli.
The substrate was prepared in freshly prepared Reaction Buffer. The kinase was delivered into the substrate solution and gently mixed. Test compounds were delivered in 100% DMSO into the kinase reaction mixture by Acoustic technology (Echo550; nanoliter range), and incubated for 20 min at room temperature. ^33P-ATP was delivered into the reaction mixture to initiate the reaction. The reaction mixture was incubated for 2 hours at room temperature. Kinase activity was detected by P81 filter-binding method.

MAP2K1 (MEK1) = molecular target: T2, MAP2K1 (MEK1) (Homo sapiens, UniProt Q02750); assay: MEK Inhibition Assay-2 (Example 3): Z'-LYTE biochemical assay; conditions: Table 6; procedure of Example 3; read-out: IC50 against MEK1
T2 construct: purchased ThermoFisher
Experimental: MEK1 inhibitory activity of compounds were tested using the following procedure (protocol available at thermofisher.com/content/dam/LifeTech/migration/files/drug-discovery/pdfs.par.60256.file.dat/20130430%20ssbk%20customer%20protocol%20and%20assay%20conditions.pdf). The Z′-LYTE biochemical assay (ThermoFisher) employs a fluorescence-based, coupled-enzyme format and is based on the differential sensitivity of phosphorylated and non-phosphorylated peptides to proteolytic cleavage.
Test compounds in 100% DMSO were screened in 1% DMSO (final) in the well. For 10 point titrations, 3-fold serial dilutions are conducted from the starting concentration of 30 μM.
After the 1 hour incubation, 5 μL of a 1:1024 dilution of Development Reagent A (available from Invitrogen, catalog no. PV3295) was added.
ATP solutions were diluted to a 4× working concentration in Kinase Buffer (50 mM HEPES pH 7.5, 0.01% BRIJ-35, 10 mM MgCl2, 1 mM EGTA). ATP Km apparent was previously determined using a Z′-LYTE assay. The Development Reagent was diluted in Development Buffer (available from Invitrogen, catalog no. P3127).
Assay Protocol: 2.5 μL of 4× test compound or 100 nL of 100× Test Compound plus 2.4 μL Kinase Buffer, 5 μL of the 2× Peptide/Kinase Mixture, 2.5 μL of 4×ATP Solution were added to the plates and placed on a shake plate for 30-seconds. The kinase reaction was allowed to proceed for 60-minute at room temperature, before 5 μL of Development Reagent Solution was added, and the mixture agitated for 30-seconds on a shake plate. The mixture was incubated for 60-minute at room temperature. Fluorescence was measured using a plate reader and the data were analyzed.
This control yielded 100% cleaved peptide in the Development Reaction. The 100% Phosphorylation Control, which consisted of a synthetically phosphorylated peptide of the same sequence as the peptide substrate, was designed to allow for the calculation of percent phosphorylation. This control yielded a very low percentage of cleaved peptide in the Development Reaction. The 0% Phosphorylation and 100% Phosphorylation Controls allow for the calculation of the percent phosphorylation achieved in a specific reaction well.
The minimum emission ratio in a screen was established by the 0% Inhibition Control, which contained active kinase. This control was designed to produce a 10-50% phosphorylated peptide in the Kinase Reaction. Cascade assays may produce up to 70% phosphorylated peptide.
A known inhibitor control standard curve, 10 point titration, was run for each individual kinase on the same plate as the kinase to ensure the kinase was inhibited within an expected IC50 range previously determined.
The following controls are prepared for each concentration of Test Compound assayed. […] The expected value for a non-interfering compound should be 100%. Any value outside of 90% to 110% was flagged. […] The expected value for a non-fluorescence compound should be 0%. Any value >20% was flagged.
The data in Table A was calculated. XLfit from IDBS was used. The dose response curve was curve fit to model number 205 (sigmoidal dose-response model).

[1] = systemic exposure, background statement; cited from earlier work
[2] = FIGS. 3 and 4, 1% by weight compound, 1% hydroxypropyl cellulose in DMSO/PEG 400 1:1, 4 hours

T1 sequence (Q02750 whole entry): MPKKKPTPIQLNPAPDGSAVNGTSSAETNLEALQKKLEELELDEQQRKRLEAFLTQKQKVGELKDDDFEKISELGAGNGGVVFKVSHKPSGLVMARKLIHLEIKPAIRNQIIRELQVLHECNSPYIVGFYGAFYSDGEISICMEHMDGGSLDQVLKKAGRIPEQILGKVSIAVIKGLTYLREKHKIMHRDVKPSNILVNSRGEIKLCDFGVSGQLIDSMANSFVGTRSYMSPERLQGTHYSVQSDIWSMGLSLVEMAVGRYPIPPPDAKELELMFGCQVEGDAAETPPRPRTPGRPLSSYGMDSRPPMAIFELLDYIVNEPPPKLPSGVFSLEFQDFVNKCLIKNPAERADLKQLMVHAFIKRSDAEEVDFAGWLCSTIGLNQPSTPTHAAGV
T2 sequence (Q02750 whole entry): as above

Compound: Cn1c(Nc2ccc(I)cc2F)c(C(=O)NOCCO)c2cccnc21 [Compound 2.003]
suppression of p-ERK in human nevus sebaceous explants (p-ERK; FIG. 5, 0.01% by weight compound, 1.5% hydroxypropyl cellulose in base formulation, 4 hours): suppression of p-ERK
dose response in suppression of p-ERK in human nevus sebaceous explants (p-ERK; FIG. 6, 0.01%, 0.15% or 1.00% by weight compound, 4 hours): dose response
suppression of p-ERK in human nevus sebaceous explants (p-ERK; [2]): suppression of p-ERK

GI50 (HCT116 cells): 448 nM
GI50 (A375 cells): 81 nM
IC50 (MEK1; Table 8, compounds of formula (II), tested by Example 2): 371 nM
Compound: Cn1c(Nc2ccc(I)cc2F)c(C(=O)NOC[C@@H](O)CO)c2cccnc21 [Compound 2.006]

IC50 (MEK1; Table 10, compounds of formula (IV), Example 2): ≤ 500 nM
IC50 (MAP2K1 (MEK1)): ≤ 150 nM
Compound: O=C1CCCc2c1sc(Nc1ccc(I)cc1F)c2C(=O)NOCCO [Compound 4.029]
suppression of p-ERK in human nevus sebaceous explants (p-ERK; [2]): suppression of p-ERK

Compound: O=C(NOC[C@H](O)CO)c1ccc(F)c(F)c1Nc1ccc(I)cc1F [PD0325901]
side effects of a clinically-tested MEK inhibitor [1]: neurological side effects associated with ataxia, confusion, and syncope
